Data on three compounds can be found in EP4732907A1, “STYRYL BENZOTHIAZOLIUM SALTS AND ITS USES AGAINST PARASITIC INFECTIONS” (priority 2024, dated 2026).

Format in all cases: cell-based
Assay [1] has as its system L. major promastigotes (LucRE9). Nature of the assay: In vitro antileishmanial activity against Leishmania major promastigotes (MTT-based assay, 72 h). As to conditions: Table 3; for IC50: Leishmania major, promastigotes, 72 h, MTT. As to the method:
Parasite culture: L. major promastigotes (LucRE9) were cultured at 28 °C in 5% CO2 in modified RPMI-1640 medium (Invitrogen, Carlsbad, CA) with 10% hiFBS.
The anti-leishmanial activity of the compounds was determined using MTT-based assay (Sigma-Aldrich) (Antimicrob Agents Chemother 2011, 55, 3838-3844). The stock solutions of the compounds were prepared in DMSO with a final DMSO percentage in each well maintained below 1%. 4 × 10^6 parasites per mL were incubated at 28 °C in 96-well plates (50 µL/well) either alone or in the presence of increasing concentration of compounds DMSO for 72 h. After the incubation period, 10 µL of MTT (5 mg/ml) was added to each well and parasites were incubated for 4 h at 28°C. Subsequently, cell lysis was performed using 50 µL/well of 20% SDS. The plate was then incubated at 37 °C for an additional hour and then absorbance was measured at a wavelength of 540 using an Infinite F200 plate reader (TECAN Austria, GmbH). The IC50 was calculated as described above. Data were presented as the average of at least three independent measurements, each conducted in triplicate conditions.

Assay [2] relates to THP1 cells (human monocytic cell line). The assay can be described thus: Cytotoxicity assay on PMA-differentiated THP1 (alamarBlue assay, 72 h). As to conditions: THP-1, Table 4, PMA-differentiated THP1, 72 h. The method, then: Post-differentiation, the cells were washed and fresh medium was added (100 µL/well) before being reincubated. […] Data represent the average of three independent experiments, each conducted in triplicate.
A general note: Resazurin is reduced to fluorescent resorufin, in cell work by metabolically active cells.

The subject of assay [3] is Bloodstream forms (BSF) of T. brucei brucei 'single marker' S427 (S16). The assay can be described thus: In vitro antitrypanosomal activity against Trypanosoma brucei (alamarBlue assay, 72 h). The conditions noted are these: Table 3; IC50 MRC-5 / IC50 T.brucei. An excerpt: Data were presented as the average of at least three independent measurements, each conducted in triplicate conditions.

The subject of the next assay is MRC-5 cell line. The assay can be described thus: Cytotoxicity assay in MRC-5 cell line (alamarBlue assay, 72 h). The conditions noted are these: Homo sapiens, MRC5, Table 3.
The test system of assay [4] is Leishmania major amastigotes. The assay can be described thus: In vitro antileishmanial activity against Leishmania major amastigotes in THP1 cells (luciferase assay, 72 h). As to conditions: Table 4. As to the method:
The antiparasitic activity of the compounds against the intracellular form of Leishmania major was evaluated using the Luciferase Assay System kit from Promega. […] Post-differentiation, the cells were washed and fresh medium was added (100 µL/well) before being reincubated. […] The plates were then incubated at 35°C in 5% CO2. After 24 hours, the wells were washed three times with PBS, and fresh medium with increasing concentrations of compounds was added (100 µL/well). After another 72 hours of incubation, the cells were then treated with 25 µL of lysis buffer and stored at -80°C. Following 24 hours, 25 µL of luciferase enzyme substrate was added to each well, and the luciferase activity of the amastigotes was determined using a TECAN Infinite F200 microplate reader. […] Data represent the average of three independent experiments, each conducted in triplicate.

Method for MRC-5 cell line: Cell culture: Cell culture media were purchased from Gibco (Grand Island, NY, USA). Fetal bovine serum (FBS) was a product of Harlan-Seralab (Belton, U.K.). Supplements and other chemicals not listed in this section were obtained from Sigma Chemicals Co. (St. Louis, Mo., USA). Plastics for cell culture were supplied by Thermo Scientific™ BioLite. All tested compounds were dissolved in DMSO at a concentration of 10 mg/mL and stored at -20°C until use. Cell lines were maintained in Dulbecco's modified Eagle's medium (DMEM) containing glucose (1 g/L), glutamine (2 mM), penicillin (50 IU/mL), streptomycin (50 µg/mL) and amphotericin (1.25 µg/mL), supplemented with 10% FBS.
The stock solutions of the compounds were prepared in DMSO, with the final DMSO concentration in each well maintained below 1%. […] Subsequently, the compounds were added at various concentrations ranging from 0 to 100 µM, and the plates were incubated for 72 h. After the incubation period, 20 µL of resazurin solution (110 ng/ml) were added to each well and cells were incubated for 4 h. Then, cells were lysed with 50 µL/well of 3% SDS. The plate was incubated at 37 °C for an additional hour and subsequently, the fluorescence intensity was measure at the Infinite F200 plate reader (TECAN Austria, GmbH), exciting at 550 nm and recording the emission at 590 nm. […] Data are presented as the average of at least three independent measurements, each conducted in triplicate conditions.

Consider `C[n+]1c(/C=C/c2ccc(N(c3ccccc3)c3ccccc3)cc2)sc2ccccc21` [Compound 2], for which the IC50 was determined as 0.02 ± 0.011 µM in assay [1]; 0.93 ± 0.02 µM in assay [2]; 5.13 ± 0.76 µM in the assay on MRC-5 cell line; 0.0281 ± 0.00473 µM in assay [4] (Leishmania major, THP-1, intracellular amastigotes in THP1 macrophages, 72 h, read-out: IC50 (uM) L. major). The “Selectivity Index (SI) L.major” value in assay [1] (IC50 MRC-5 / IC50 L.major promastigotes) is given as 252.0. Besides, in assay [3], the “Selectivity Index (SI) T.brucei” value turned out to be 15.1. For the same compound, the “Selectivity Index (SI) MRC-5” value in assay [4] (IC50 MRC-5 / IC50 L.major amastigotes) is given as 182. Further, the “Selectivity Index (SI) THP-1” value in assay [4] (IC50 THP-1 / IC50 L. major amastigotes) was 33.
Take `C[n+]1c(/C=C/c2cc3c4c(c2)CCCN4CCC3)sc2ccccc21` [Compound 3]: the values for the IC50 (in assay [1]; in the assay on MRC-5 cell line) were 0.0065 ± 0.0029 µM and 0.08 ± 0.03 µM, respectively.
The like results for `CN(C)c1ccc(/C=C/c2sc3ccccc3[n+]2C)cc1` [Compound 1, (E)-2-(4-(Dimethylamino)styryl)-3-methylbenzo[d]thiazol-3-ium iodide] were, in that order, 0.02 ± 0.013 µM and 1.52 ± 0.37 µM.

In general, IC50 refers to the point on the concentration scale where inhibition reaches its midpoint.
